Measurements as given in the kinase profiling compilation of Christmann-Franck et al. (2016).

Experiments:
Test in all cases: radiometric filter-binding kinase assay
ROCK2 (rat) = conditions: accession and sequence are those of the human protein
BRSK1 (human) = BRSK1 (human) (UniProt Q8TDC3)
MAPK11 (human) = MAPK11 (human) (UniProt Q15759)
CSK (human) = CSK (human) (UniProt P41240)
JAK2 JH1 JH2 (human) = JAK2 JH1 JH2 (human) (UniProt O60674)
RPS6KA3 KD1 KD2 (human) = RPS6KA3 KD1 KD2 (human) (UniProt P51812)
IGF1R (human) = IGF1R (human) (UniProt P08069)
MAPK15 (human) = MAPK15 (human) (UniProt Q8TD08)
PRKCZ (human) = PRKCZ (human) (UniProt Q05513)
CLK2 (human) = CLK2 (human) (UniProt P49760)
DYRK3 (human) = DYRK3 (human) (UniProt O43781)
RIPK2 (human) = RIPK2 (human) (UniProt O43353)
[1] = system: AKT2 (human), P31751 [S474D]
SRC (human) = SRC (human) (UniProt P12931)
INSR (human) = INSR (human) (UniProt P06213)
LCK (mouse) = conditions: accession and sequence are those of the human protein
EPHA2 (human) = EPHA2 (human) (UniProt P29317)
HIPK3 (human) = HIPK3 (human) (UniProt Q9H422)
IRAK4 (human) = IRAK4 (human) (UniProt Q9NWZ3)
MAPK14 (human) = MAPK14 (human) (UniProt Q16539)
NTRK1 (human) = NTRK1 (human) (UniProt P04629)
FLT1 (human) = FLT1 (human) (UniProt P17948)
MAPKAPK5 (human) = MAPKAPK5 (human) (UniProt Q8IW41)
CAMKK2 (human) = CAMKK2 (human) (UniProt Q96RR4)
MAP3K7 TAB1 (human) = MAP3K7 TAB1 (human) (UniProt Q15750+O43318)
[2] = molecular target: STK11 CAB39 STRADA (human) (UniProt Q9Y376+Q7RTN6+Q15831)
GSK3B (human) = GSK3B (human) (UniProt P49841)
MARK1 (human) = MARK1 (human) (UniProt Q9P0L2)
MAP3K1 (human) = MAP3K1 (human) (UniProt Q13233)
MELK (human) = MELK (human) (UniProt Q14680)
FGFR1 (human) = FGFR1 (human) (UniProt P11362)
MINK1 (human) = MINK1 (human) (UniProt Q8N4C8)
CSNK1D (human) = CSNK1D (human) (UniProt P48730)
HIPK1 (human) = HIPK1 (human) (UniProt Q86Z02)

Chain of MELK (human) (Q14680 whole entry, looked up): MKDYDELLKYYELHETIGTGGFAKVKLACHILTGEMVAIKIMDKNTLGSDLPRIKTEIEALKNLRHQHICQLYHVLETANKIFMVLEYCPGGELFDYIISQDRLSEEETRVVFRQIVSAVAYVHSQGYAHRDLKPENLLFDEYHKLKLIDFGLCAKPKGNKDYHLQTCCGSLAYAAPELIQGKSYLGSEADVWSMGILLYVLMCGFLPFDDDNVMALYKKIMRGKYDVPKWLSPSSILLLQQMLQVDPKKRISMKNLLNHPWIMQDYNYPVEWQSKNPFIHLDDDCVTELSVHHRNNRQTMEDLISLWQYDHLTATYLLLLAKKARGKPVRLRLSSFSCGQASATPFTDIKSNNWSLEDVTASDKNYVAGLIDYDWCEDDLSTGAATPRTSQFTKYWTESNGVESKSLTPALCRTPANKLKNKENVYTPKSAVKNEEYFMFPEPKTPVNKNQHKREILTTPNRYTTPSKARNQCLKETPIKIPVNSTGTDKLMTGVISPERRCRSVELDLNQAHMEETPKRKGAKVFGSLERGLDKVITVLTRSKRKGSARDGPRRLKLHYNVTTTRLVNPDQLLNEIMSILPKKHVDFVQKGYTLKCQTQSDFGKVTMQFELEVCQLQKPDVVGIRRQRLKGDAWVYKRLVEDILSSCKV
Chain of JAK2 JH1 JH2 (human) (O60674 whole entry, looked up): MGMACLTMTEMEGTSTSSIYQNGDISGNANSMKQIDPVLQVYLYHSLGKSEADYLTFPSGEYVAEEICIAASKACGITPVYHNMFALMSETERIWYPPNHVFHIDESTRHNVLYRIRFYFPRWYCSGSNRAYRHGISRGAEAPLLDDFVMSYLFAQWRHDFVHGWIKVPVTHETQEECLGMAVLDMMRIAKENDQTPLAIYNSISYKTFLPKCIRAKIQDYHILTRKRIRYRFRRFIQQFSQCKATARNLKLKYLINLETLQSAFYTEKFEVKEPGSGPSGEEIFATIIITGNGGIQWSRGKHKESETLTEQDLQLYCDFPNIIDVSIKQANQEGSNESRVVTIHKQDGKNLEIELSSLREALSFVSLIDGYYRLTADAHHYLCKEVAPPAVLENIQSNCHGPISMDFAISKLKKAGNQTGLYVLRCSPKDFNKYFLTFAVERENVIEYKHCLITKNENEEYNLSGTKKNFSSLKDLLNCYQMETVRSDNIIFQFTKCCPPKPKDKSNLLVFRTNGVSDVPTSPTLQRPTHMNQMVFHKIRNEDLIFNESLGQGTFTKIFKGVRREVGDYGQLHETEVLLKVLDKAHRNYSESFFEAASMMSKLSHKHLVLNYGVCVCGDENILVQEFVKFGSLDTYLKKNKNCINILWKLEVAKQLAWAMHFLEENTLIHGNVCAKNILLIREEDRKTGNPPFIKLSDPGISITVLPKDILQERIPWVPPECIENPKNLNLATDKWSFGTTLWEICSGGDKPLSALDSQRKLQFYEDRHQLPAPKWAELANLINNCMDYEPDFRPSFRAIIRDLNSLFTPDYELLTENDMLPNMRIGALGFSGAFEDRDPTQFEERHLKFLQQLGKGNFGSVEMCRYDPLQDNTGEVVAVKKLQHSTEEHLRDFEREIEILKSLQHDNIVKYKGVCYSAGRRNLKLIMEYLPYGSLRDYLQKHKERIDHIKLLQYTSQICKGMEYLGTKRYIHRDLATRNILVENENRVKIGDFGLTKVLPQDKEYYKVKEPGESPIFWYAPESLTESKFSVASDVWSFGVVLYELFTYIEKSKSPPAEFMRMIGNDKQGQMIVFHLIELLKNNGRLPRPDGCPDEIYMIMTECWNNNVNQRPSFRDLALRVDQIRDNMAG
Chain of FLT1 (human) (P17948 whole entry, looked up): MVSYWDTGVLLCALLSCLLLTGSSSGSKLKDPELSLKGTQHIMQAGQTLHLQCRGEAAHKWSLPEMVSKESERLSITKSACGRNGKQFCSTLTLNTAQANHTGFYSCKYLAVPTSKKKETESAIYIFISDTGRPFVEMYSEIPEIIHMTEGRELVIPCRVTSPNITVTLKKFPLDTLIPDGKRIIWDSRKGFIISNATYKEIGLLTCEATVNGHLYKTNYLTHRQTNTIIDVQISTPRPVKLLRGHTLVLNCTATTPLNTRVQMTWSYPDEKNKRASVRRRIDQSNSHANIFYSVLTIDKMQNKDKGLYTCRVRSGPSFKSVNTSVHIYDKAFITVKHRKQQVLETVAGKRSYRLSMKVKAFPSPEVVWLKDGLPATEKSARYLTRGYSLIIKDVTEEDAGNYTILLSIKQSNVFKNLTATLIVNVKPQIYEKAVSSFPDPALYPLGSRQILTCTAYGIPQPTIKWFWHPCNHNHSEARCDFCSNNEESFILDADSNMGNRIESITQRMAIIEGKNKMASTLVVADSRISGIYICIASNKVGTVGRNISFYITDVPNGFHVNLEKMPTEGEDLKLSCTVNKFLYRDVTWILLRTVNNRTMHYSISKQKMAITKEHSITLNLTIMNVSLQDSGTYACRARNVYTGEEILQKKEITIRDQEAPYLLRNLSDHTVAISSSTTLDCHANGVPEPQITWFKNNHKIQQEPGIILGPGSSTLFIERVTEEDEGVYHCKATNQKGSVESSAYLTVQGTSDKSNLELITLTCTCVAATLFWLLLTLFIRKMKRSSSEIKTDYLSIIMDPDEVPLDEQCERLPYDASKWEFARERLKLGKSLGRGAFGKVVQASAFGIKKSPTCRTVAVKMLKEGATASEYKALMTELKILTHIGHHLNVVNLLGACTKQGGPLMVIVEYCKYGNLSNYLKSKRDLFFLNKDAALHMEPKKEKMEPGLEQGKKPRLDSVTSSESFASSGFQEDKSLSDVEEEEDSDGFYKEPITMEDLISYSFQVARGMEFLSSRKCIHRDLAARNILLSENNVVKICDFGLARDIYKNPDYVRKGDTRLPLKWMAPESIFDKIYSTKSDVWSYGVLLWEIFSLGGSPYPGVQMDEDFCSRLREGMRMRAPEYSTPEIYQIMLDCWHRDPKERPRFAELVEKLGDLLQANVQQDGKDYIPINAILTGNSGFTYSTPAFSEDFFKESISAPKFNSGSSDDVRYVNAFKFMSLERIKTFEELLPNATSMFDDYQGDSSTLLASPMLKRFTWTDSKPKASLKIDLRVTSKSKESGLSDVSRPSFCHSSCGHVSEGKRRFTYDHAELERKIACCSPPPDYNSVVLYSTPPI
Chain of MINK1 (human) (Q8N4C8 whole entry, looked up): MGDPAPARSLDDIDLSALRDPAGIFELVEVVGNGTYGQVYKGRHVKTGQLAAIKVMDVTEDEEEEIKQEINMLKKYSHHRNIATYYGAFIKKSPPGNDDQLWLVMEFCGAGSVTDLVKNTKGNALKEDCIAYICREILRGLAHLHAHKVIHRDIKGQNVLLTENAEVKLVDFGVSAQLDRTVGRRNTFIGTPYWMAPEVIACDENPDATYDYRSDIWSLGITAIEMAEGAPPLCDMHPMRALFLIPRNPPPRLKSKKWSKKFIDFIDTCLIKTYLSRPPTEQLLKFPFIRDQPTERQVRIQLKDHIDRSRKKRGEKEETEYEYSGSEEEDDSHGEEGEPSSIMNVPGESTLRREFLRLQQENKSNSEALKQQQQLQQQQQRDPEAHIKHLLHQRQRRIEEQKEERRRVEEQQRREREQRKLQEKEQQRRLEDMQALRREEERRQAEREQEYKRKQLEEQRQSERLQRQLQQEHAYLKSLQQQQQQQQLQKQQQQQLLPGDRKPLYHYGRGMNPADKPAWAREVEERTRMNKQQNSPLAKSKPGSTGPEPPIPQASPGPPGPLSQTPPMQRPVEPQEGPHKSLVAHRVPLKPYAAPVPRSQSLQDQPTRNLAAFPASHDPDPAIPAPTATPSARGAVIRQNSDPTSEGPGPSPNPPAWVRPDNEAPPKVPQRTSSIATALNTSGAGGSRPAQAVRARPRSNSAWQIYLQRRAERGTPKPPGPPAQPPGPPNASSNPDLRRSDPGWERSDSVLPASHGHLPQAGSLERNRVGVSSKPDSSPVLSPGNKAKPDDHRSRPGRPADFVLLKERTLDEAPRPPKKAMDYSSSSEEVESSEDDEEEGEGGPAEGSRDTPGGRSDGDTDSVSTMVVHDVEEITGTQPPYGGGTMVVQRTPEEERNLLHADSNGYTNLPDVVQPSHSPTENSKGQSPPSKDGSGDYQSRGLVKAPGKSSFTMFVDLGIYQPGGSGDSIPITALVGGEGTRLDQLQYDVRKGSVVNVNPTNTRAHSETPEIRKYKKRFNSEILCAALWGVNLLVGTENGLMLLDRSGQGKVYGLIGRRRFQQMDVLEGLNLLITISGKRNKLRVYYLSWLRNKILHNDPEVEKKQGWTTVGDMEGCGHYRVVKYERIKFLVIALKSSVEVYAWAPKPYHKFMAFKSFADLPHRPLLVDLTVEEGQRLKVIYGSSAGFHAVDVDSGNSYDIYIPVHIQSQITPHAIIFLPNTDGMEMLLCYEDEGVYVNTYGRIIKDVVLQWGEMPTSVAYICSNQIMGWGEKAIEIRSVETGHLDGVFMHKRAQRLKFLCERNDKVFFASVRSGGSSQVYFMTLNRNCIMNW
Chain of CLK2 (human) (P49760 whole entry, looked up): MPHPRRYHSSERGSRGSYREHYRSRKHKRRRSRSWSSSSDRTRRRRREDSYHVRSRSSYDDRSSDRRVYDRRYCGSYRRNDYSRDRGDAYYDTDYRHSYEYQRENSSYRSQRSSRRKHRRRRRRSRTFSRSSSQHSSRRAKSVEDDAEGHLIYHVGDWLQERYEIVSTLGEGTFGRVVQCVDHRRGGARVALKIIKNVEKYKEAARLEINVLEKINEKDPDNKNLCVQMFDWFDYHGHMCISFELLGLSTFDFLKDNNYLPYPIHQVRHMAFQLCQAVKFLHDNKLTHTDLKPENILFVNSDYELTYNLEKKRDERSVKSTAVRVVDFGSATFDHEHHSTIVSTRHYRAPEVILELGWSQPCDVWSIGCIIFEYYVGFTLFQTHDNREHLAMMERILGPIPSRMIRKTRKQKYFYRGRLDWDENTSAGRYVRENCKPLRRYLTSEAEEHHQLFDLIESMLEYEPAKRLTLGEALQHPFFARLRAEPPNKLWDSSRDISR

NC(=O)c1cc2c(-c3cccc(-c4ccccc4)c3)cnc(N)c2s1
residual activity (ROCK2 (rat); compound 0.1 µM): 75%
residual activity (ROCK2 (rat); compound 1.0 µM): 31%
residual activity (ROCK2 (rat); compound 10.0 µM): 7%
residual activity (BRSK1 (human); compound 0.1 µM): 102%
residual activity (BRSK1 (human); compound 1.0 µM): 81%
residual activity (BRSK1 (human); compound 10.0 µM): 89%
residual activity (MAPK11 (human); compound 0.1 µM): 96%
residual activity (MAPK11 (human); compound 1.0 µM): 111%
residual activity (MAPK11 (human); compound 10.0 µM): 80%
residual activity (CSK (human); compound 0.1 µM): 90%
residual activity (CSK (human); compound 1.0 µM): 82%
residual activity (CSK (human); compound 10.0 µM): 58%
residual activity (JAK2 JH1 JH2 (human); compound 0.1 µM): 101%
residual activity (JAK2 JH1 JH2 (human); compound 1.0 µM): 90%
residual activity (JAK2 JH1 JH2 (human); compound 10.0 µM): 43%
residual activity (RPS6KA3 KD1 KD2 (human); compound 0.1 µM): 108%
residual activity (RPS6KA3 KD1 KD2 (human); compound 1.0 µM): 84%
residual activity (RPS6KA3 KD1 KD2 (human); compound 10.0 µM): 53%
residual activity (IGF1R (human); compound 0.1 µM): 113%
residual activity (IGF1R (human); compound 1.0 µM): 87%
residual activity (IGF1R (human); compound 10.0 µM): 13%
residual activity (MAPK15 (human); compound 0.1 µM): 99%
residual activity (MAPK15 (human); compound 1.0 µM): 50%
residual activity (MAPK15 (human); compound 10.0 µM): 23%
residual activity (PRKCZ (human); compound 0.1 µM): 108%
residual activity (PRKCZ (human); compound 1.0 µM): 93%
residual activity (PRKCZ (human); compound 10.0 µM): 82%
residual activity (CLK2 (human); compound 0.1 µM): 50%
residual activity (CLK2 (human); compound 1.0 µM): 10%
residual activity (CLK2 (human); compound 10.0 µM): 2%
residual activity (DYRK3 (human); compound 0.1 µM): 97%
residual activity (DYRK3 (human); compound 1.0 µM): 76%
residual activity (DYRK3 (human); compound 10.0 µM): 59%
residual activity (RIPK2 (human); compound 0.1 µM): 86%
residual activity (RIPK2 (human); compound 1.0 µM): 36%
residual activity (RIPK2 (human); compound 10.0 µM): 12%
residual activity ([1]; compound 0.1 µM): 94%
residual activity ([1]; compound 1.0 µM): 88%
residual activity ([1]; compound 10.0 µM): 98%
residual activity (SRC (human); compound 0.1 µM): 100%
residual activity (SRC (human); compound 1.0 µM): 89%
residual activity (SRC (human); compound 10.0 µM): 108%
residual activity (INSR (human); compound 0.1 µM): 103%
residual activity (INSR (human); compound 1.0 µM): 81%
residual activity (INSR (human); compound 10.0 µM): 18%
residual activity (LCK (mouse); compound 0.1 µM): 105%
residual activity (LCK (mouse); compound 1.0 µM): 88%
residual activity (LCK (mouse); compound 10.0 µM): 67%
residual activity (EPHA2 (human); compound 0.1 µM): 87%
residual activity (EPHA2 (human); compound 1.0 µM): 78%
residual activity (EPHA2 (human); compound 10.0 µM): 86%
residual activity (HIPK3 (human); compound 0.1 µM): 76%
residual activity (HIPK3 (human); compound 1.0 µM): 52%
residual activity (HIPK3 (human); compound 10.0 µM): 19%
residual activity (IRAK4 (human); compound 0.1 µM): 127%
residual activity (IRAK4 (human); compound 1.0 µM): 92%
residual activity (IRAK4 (human); compound 10.0 µM): 44%
residual activity (MAPK14 (human); compound 0.1 µM): 110%
residual activity (MAPK14 (human); compound 1.0 µM): 101%
residual activity (MAPK14 (human); compound 10.0 µM): 59%
residual activity (NTRK1 (human); compound 0.1 µM): 92%
residual activity (NTRK1 (human); compound 1.0 µM): 73%
residual activity (NTRK1 (human); compound 10.0 µM): 28%
residual activity (FLT1 (human); compound 0.1 µM): 100%
residual activity (FLT1 (human); compound 1.0 µM): 55%
residual activity (FLT1 (human); compound 10.0 µM): 22%
residual activity (MAPKAPK5 (human); compound 0.1 µM): 87%
residual activity (MAPKAPK5 (human); compound 1.0 µM): 42%
residual activity (MAPKAPK5 (human); compound 10.0 µM): 15%
residual activity (CAMKK2 (human); compound 0.1 µM): 99%
residual activity (CAMKK2 (human); compound 1.0 µM): 61%
residual activity (CAMKK2 (human); compound 10.0 µM): 30%
residual activity (MAP3K7 TAB1 (human); compound 1.0 µM): 8%
residual activity (MAP3K7 TAB1 (human); compound 10.0 µM): 2%
residual activity ([2]; compound 0.1 µM): 105%
residual activity ([2]; compound 1.0 µM): 57%
residual activity ([2]; compound 10.0 µM): 23%
residual activity (GSK3B (human); compound 0.1 µM): 68%
residual activity (GSK3B (human); compound 1.0 µM): 16%
residual activity (GSK3B (human); compound 10.0 µM): 4%
residual activity (MARK1 (human); compound 0.1 µM): 78%
residual activity (MARK1 (human); compound 1.0 µM): 66%
residual activity (MARK1 (human); compound 10.0 µM): 37%
residual activity (MAP3K1 (human); compound 0.1 µM): 108%
residual activity (MAP3K1 (human); compound 1.0 µM): 73%
residual activity (MAP3K1 (human); compound 10.0 µM): 30%
residual activity (MELK (human); compound 0.1 µM): 99%
residual activity (MELK (human); compound 1.0 µM): 57%
residual activity (MELK (human); compound 10.0 µM): 15%
residual activity (FGFR1 (human); compound 0.1 µM): 104%
residual activity (FGFR1 (human); compound 1.0 µM): 96%
residual activity (FGFR1 (human); compound 10.0 µM): 85%
residual activity (MINK1 (human); compound 0.1 µM): 58%
residual activity (MINK1 (human); compound 1.0 µM): 12%
residual activity (MINK1 (human); compound 10.0 µM): 4%
residual activity (CSNK1D (human); compound 0.1 µM): 109%
residual activity (CSNK1D (human); compound 1.0 µM): 73%
residual activity (CSNK1D (human); compound 10.0 µM): 18%
residual activity (HIPK1 (human); compound 0.1 µM): 86%
residual activity (HIPK1 (human); compound 1.0 µM): 37%
residual activity (HIPK1 (human); compound 10.0 µM): 13%
